The source of these data is ChEMBL document CHEMBL1649408, “Synthesis and in vitro antimycobacterial activity of 8-OCH(3) ciprofloxacin methylene and ethylene isatin derivatives” (Eur J Med Chem, 2011).

≈ marks a conversion by molar mass, not a printed value.

Data set [1] is described as follows: Cytotoxicity against african green monkey Vero cells after 72 hrs by MTT assat. To be noted: chlorocebus sabaeus.
The test system of data set [2] is Mycolicibacterium smegmatis. Kind of data set: Antimycobacterial activity against Mycobacterium smegmatis CMCC 93202 after 72 hrs by serial double dilution technique. In kind it is functional. To be noted: CMCC 93202, 72 h.
In data set [3] the test system is Mycobacterium tuberculosis. As to the kind of experiment: microbe, parasite or virus in culture. In kind it is functional. To be noted: H37Rv ATCC 27294, 168 h.
Description: Antimycobacterial activity against Mycobacterium tuberculosis H37Rv ATCC 27294 after 7 days by serial double dilution technique
In data set [4] the test system is Mycobacterium tuberculosis. Kind of data set: Ratio of compound MIC to 8-OCH3 ciprofloxacin MIC for Mycobacterium tuberculosis H37Rv ATCC 27294. In kind it is functional.

As for `CO/N=C1\C(=O)N(CN2CCN(c3c(F)cc4c(=O)c(C(=O)O)cn(C5CC5)c4c3OC)CC2)c2ccccc21`, in data set [1] (Vero cells), the CC50 (commonly the concentration at which the toxic effect on the cells reaches its halfway point) at 72 h is 76.5 µM. Moreover, the MIC in data set [2] turned out to be 5.68 µM (≈ 3.12 µg/mL); in data set [3], 0.15 µM (≈ 0.0824 µg/mL).

For the compound `COc1c(N2CCN(CN3C(=O)/C(=N\NC(N)=O)c4cc(F)ccc43)CC2)c(F)cc2c(=O)c(C(=O)O)cn(C3CC3)c12`, in data set [1] (Vero cells), the CC50 at 72 h was 168 µM. In addition, the MIC in data set [2] stood at 2.62 µM (≈ 1.56 µg/mL); in data set [3], 0.13 µM (≈ 0.0774 µg/mL). Moreover, the Ratio in data set [4] is 1.6.

The compound `CO/N=C1\C(=O)N(CCN2CCN(c3c(F)cc4c(=O)c(C(=O)O)cn(C5CC5)c4c3OC)CC2)c2ccc(F)cc21` came in with a half-maximal cytotoxic concentration (CC50) at 72 h in data set [1] (Vero cells) of 12.8 µM. The MIC in data set [2] was found to be 2.68 µM (≈ 1.56 µg/mL); in data set [3], 1.1 µM (≈ 0.64 µg/mL).

For `COc1c(N2CCN(CCN3C(=O)/C(=N\NC(N)=S)c4cc(F)ccc43)CC2)c(F)cc2c(=O)c(C(=O)O)cn(C3CC3)c12`, in data set [1] (Vero cells), the CC50 at 72 h is 57 µM. Further, the figures for the MIC in data set [2] and in data set [3] were 2.5 µM (≈ 1.56 µg/mL) and 1.02 µM (≈ 0.638 µg/mL), respectively.

`CCO/N=C1\C(=O)N(CCN2CCN(c3c(F)cc4c(=O)c(C(=O)O)cn(C5CC5)c4c3OC)CC2)c2ccccc21` came in with an MIC in data set [2] of 5.41 µM (≈ 3.12 µg/mL).

With `COc1c(N2CCN(CN3C(=O)/C(=N\NC(N)=S)c4ccccc43)CC2)c(F)cc2c(=O)c(C(=O)O)cn(C3CC3)c12`, in data set [1] (Vero cells), the midpoint of cytotoxicity, the CC50 at 72 h, lay at 154 µM. The MIC was determined as 2.63 µM (≈ 1.56 µg/mL) in data set [2] and 0.13 µM (≈ 0.0772 µg/mL) in data set [3]. Also, the Ratio in data set [4] is 1.6.

As to `COc1c(N2CCN(CN3C(=O)C(=O)c4cc(F)ccc43)CC2)c(F)cc2c(=O)c(C(=O)O)cn(C3CC3)c12`, the midpoint of cytotoxicity in data set [1] (Vero cells), the CC50 at 72 h, lay at 70.6 µM. Moreover, the results for the MIC in data set [2] and in data set [3] were 2.9 µM (≈ 1.56 µg/mL) and 0.074 µM (≈ 0.0398 µg/mL), respectively.

Take `CCO/N=C1\C(=O)N(CN2CCN(c3c(F)cc4c(=O)c(C(=O)O)cn(C5CC5)c4c3OC)CC2)c2ccc(F)cc21`: the CC50 at 72 h in data set [1] (Vero cells) worked out at 85.8 µM. For the same compound, the MIC in data set [2] is 2.68 µM (≈ 1.56 µg/mL); in data set [3], 0.55 µM (≈ 0.32 µg/mL).

In data set [1] (vero), `O=C(O)c1cn(C2CC2)c2cc(N3CCNCC3)c(F)cc2c1=O` [CIPROFLOXACIN] yielded a CC50 at 72 h of 601 µM. In addition, the MIC in data set [2] amounted to 2.36 µM (≈ 0.782 µg/mL); in data set [3], 0.97 µM (≈ 0.321 µg/mL).

Take `CO/N=C1\C(=O)N(CN2CCN(c3c(F)cc4c(=O)c(C(=O)O)cn(C5CC5)c4c3OC)CC2)c2ccc(F)cc21`: in data set [1] (Vero cells), the 50% cytotoxic concentration (CC50) at 72 h came to 46.8 µM. The results for the MIC in data set [2] and in data set [3] were 2.75 µM (≈ 1.56 µg/mL) and 0.14 µM (≈ 0.0795 µg/mL), respectively. The Ratio in data set [4] is listed as 1.6.

In the case of `COc1c(N2CCN(CCN3C(=O)C(=O)c4ccccc43)CC2)c(F)cc2c(=O)c(C(=O)O)cn(C3CC3)c12`, in data set [2], the MIC turned out to be 5.84 µM (≈ 3.12 µg/mL).

Compound `COc1c(N2CCN(CCN3C(=O)C(=O)c4cc(F)ccc43)CC2)c(F)cc2c(=O)c(C(=O)O)cn(C3CC3)c12` came in with an MIC in data set [2] of 2.83 µM (≈ 1.56 µg/mL).

In turn, `CO[C@H]1/C=C/O[C@@]2(C)Oc3c(C)c(O)c4c(O)c(c(/C=N/N5CCN(C)CC5)c(O)c4c3C2=O)NC(=O)/C(C)=C\C=C\[C@H](C)[C@H](O)[C@@H](C)[C@@H](O)[C@@H](C)[C@H](OC(C)=O)[C@@H]1C` [RIFAMPIN] showed a CC50 at 72 h in data set [1] (Vero cells) of 180 µM. In addition, the MIC in data set [2] came to 3.79 µM (≈ 3.12 µg/mL); in data set [3], 0.19 µM (≈ 0.156 µg/mL).

In the case of `COc1c(N2CCN(CCN3C(=O)/C(=N\O)c4ccccc43)CC2)c(F)cc2c(=O)c(C(=O)O)cn(C3CC3)c12`, in data set [2], the MIC was found to be 11.4 µM (≈ 6.25 µg/mL).

In data set [2], `COc1c(N2CCN(CCN3C(=O)/C(=N\O)c4cc(F)ccc43)CC2)c(F)cc2c(=O)c(C(=O)O)cn(C3CC3)c12` displayed an MIC of 22.1 µM (≈ 12.5 µg/mL).

Turning to `COc1c(N2CCN(CCN3C(=O)/C(=N\NC(N)=O)c4ccccc43)CC2)c(F)cc2c(=O)c(C(=O)O)cn(C3CC3)c12`, the MIC in data set [2] amounted to 5.28 µM (≈ 3.12 µg/mL).

Consider `CCO/N=C1\C(=O)N(CN2CCN(c3c(F)cc4c(=O)c(C(=O)O)cn(C5CC5)c4c3OC)CC2)c2ccccc21`, for which the CC50 at 72 h in data set [1] (Vero cells) was determined as 91.5 µM. Further, the MIC stood at 2.77 µM (≈ 1.56 µg/mL) in data set [2] and 0.14 µM (≈ 0.0789 µg/mL) in data set [3].

In data set [1] (Vero cells), `COc1c(N2CCN(CN3C(=O)C(=O)c4ccccc43)CC2)c(F)cc2c(=O)c(C(=O)O)cn(C3CC3)c12` registered a CC50 at 72 h of 70.8 µM. Also, the MIC is 24 µM (≈ 12.5 µg/mL) in data set [2] and 0.15 µM (≈ 0.0781 µg/mL) in data set [3].

In data set [1] (Vero cells), `COc1c(N2CCN(CN3C(=O)/C(=N\O)c4cc(F)ccc43)CC2)c(F)cc2c(=O)c(C(=O)O)cn(C3CC3)c12` came in with a CC50 at 72 h of 73.8 µM. The MIC in data set [2] was 1.41 µM (≈ 0.78 µg/mL); in data set [3], 0.14 µM (≈ 0.0775 µg/mL).

In turn, `COc1c(N2CCN(CN3C(=O)/C(=N\O)c4ccccc43)CC2)c(F)cc2c(=O)c(C(=O)O)cn(C3CC3)c12` came in with a cytotoxic concentration (CC50) at 72 h in data set [1] (Vero cells) of 74.4 µM. For the same compound, the MIC in data set [2] worked out at 2.92 µM (≈ 1.56 µg/mL); in data set [3], 0.15 µM (≈ 0.0803 µg/mL).

For `COc1c(N2CCN(CCN3C(=O)/C(=N\NC(N)=O)c4cc(F)ccc43)CC2)c(F)cc2c(=O)c(C(=O)O)cn(C3CC3)c12`, the MIC in data set [2] worked out at 5.12 µM (≈ 3.12 µg/mL).

In data set [1] (Vero cells), `COc1c(N2CCN(CCN3C(=O)/C(=N\NC(N)=S)c4ccccc43)CC2)c(F)cc2c(=O)c(C(=O)O)cn(C3CC3)c12` gave a CC50 at 72 h of 56.1 µM. The MIC is 2.57 µM (≈ 1.56 µg/mL) in data set [2] and 1.05 µM (≈ 0.638 µg/mL) in data set [3].

As for `COc1c(N2CCN(CN3C(=O)/C(=N\NC(N)=O)c4ccccc43)CC2)c(F)cc2c(=O)c(C(=O)O)cn(C3CC3)c12`, the CC50 at 72 h in data set [1] (Vero cells) was determined as 266 µM. The MIC in data set [2] was 1.35 µM (≈ 0.78 µg/mL); in data set [3], 0.14 µM (≈ 0.0809 µg/mL). Further, the Ratio in data set [4] is recorded as 1.6.

In data set [1] (Vero cells), `COc1c(N2CCNCC2)c(F)cc2c(=O)c(C(=O)O)cn(C3CC3)c12` returned a CC50 at 72 h of 242 µM. For the same compound, the MIC in data set [2] came out at 0.54 µM (≈ 0.195 µg/mL); in data set [3], 0.22 µM (≈ 0.0795 µg/mL).

With `CO/N=C1\C(=O)N(CCN2CCN(c3c(F)cc4c(=O)c(C(=O)O)cn(C5CC5)c4c3OC)CC2)c2ccccc21`, the midpoint of cytotoxicity in data set [1] (Vero cells), the CC50 at 72 h, lay at 306 µM. The MIC stood at 2.77 µM (≈ 1.56 µg/mL) in data set [2] and 1.14 µM (≈ 0.642 µg/mL) in data set [3].

For `CCO/N=C1\C(=O)N(CCN2CCN(c3c(F)cc4c(=O)c(C(=O)O)cn(C5CC5)c4c3OC)CC2)c2ccc(F)cc21`, the MIC in data set [2] amounted to 1.31 µM (≈ 0.78 µg/mL).

As for `NNC(=O)c1ccncc1` [ISONIAZID], the MIC in data set [2] was determined as 5.69 µM (≈ 0.78 µg/mL); in data set [3], 0.29 µM (≈ 0.0398 µg/mL).
